Read-outs that look alike come from different tables or passages of the source.
How the values were obtained:
Gram-positive pathogen = test: SSTI trial: microbiologic response, all Gram-positive organisms; format: in vivo, human; conditions: single dose; EOT and FU, microbiologically-evaluable and MITT populations
Protocol: This randomized, controlled study evaluated the safety and efficacy of two dose regimens of dalbavancin.
There were 62 patients randomized into the study, all received at least one dose of study medication. Four study populations were evaluated for safety and efficacy and were defined as follows: The intent-to-treat (I) population included all patients who received at least one dose of study drug (all randomized study subjects).
Microbiological outcome, a secondary efficacy variable, was assessed in the subpopulation of patients who had microbiologically documented SSTI (i.e., at least one identified baseline pathogen). A microbiologic response was assessed for each Gram-positive pathogen identified at baseline (i.e., eradication, presumed eradication, persistence, presumed persistence). For patients for whom follow-up cultures were not performed, the microbiologic responses for baseline pathogens were presumed on the basis of the clinical response. Microbiologic response by patient at the EOT and FU visits was graded as success (i.e., all Gram-positive organisms eradicated or presumed eradicated) or failure (i.e., at least one Gram-positive organism persisted or presumed to have persisted, multiple pathogens with partial eradication). At both the EOT and FU visits, colonization and superinfection were assessed. […]

[1] = test system: methicillin-resistant S. aureus (MRSA); format: in vivo
Protocol: The effectiveness of the three treatment regimens was determined by assessing the patients' clinical response and the documented or presumed microbiological responses. The primary efficacy endpoint was clinical response at the follow-up visit for the clinically evaluable population. Clinical response, for both EOT and FU visits, was categorized as success (cure or improvement) or failure (including indeterminate results). […] Failure was defined as persistence of one or more local or systemic signs and symptoms of SSTI such that treatment with new or additional systemic antibacterial agents was required for the SSTI.
Microbiological outcome, a secondary efficacy variable, was assessed in the subpopulation of patients who had microbiologically documented SSTI (i.e., at least one identified baseline pathogen). A microbiologic response was assessed for each Gram-positive pathogen identified at baseline (i.e., eradication, presumed eradication, persistence, presumed persistence). For patients for whom follow-up cultures were not performed, the microbiologic responses for baseline pathogens were presumed on the basis of the clinical response. […] At both the EOT and FU visits, colonization and superinfection were assessed. […]

## CN[C@H]1C(=O)N[C@@H]2Cc3ccc(cc3)Oc3cc4cc(c3O[C@@H]3O[C@H](C(=O)O)[C@@H](O)[C@H](O)[C@H]3NC(=O)CCCCCCCCC(C)C)Oc3ccc(cc3Cl)[C@@H](O)[C@@H]3NC(=O)[C@H](NC(=O)[C@@H]4NC(=O)[C@@H](NC2=O)c2cc(cc(O)c2Cl)Oc2cc1ccc2O)c1ccc(O)c(c1)-c1c(O[C@H]2O[C@H](CO)[C@@H](O)[C@H](O)[C@@H]2O)cc(O)cc1[C@@H](C(=O)NCCCN(C)C)NC3=O [Dalbavancin]
Gram-positive pathogen
  Microbiologic success rates at both visits (summary): < 40%
[1]; single-dose 1100 mg IV day 1
  Clinical success rate at FU, MITT patients with MRSA: 50%
[1]; two-dose 1000 mg IV day 1, 500 mg day 8
  Clinical success rate at FU, MITT patients with MRSA: 80%

Reference: patent US20050090433A1 (priority 2002, published 2005)
